Read-outs that look alike come from different tables or passages of the source. *1 amine or outer side, *2 acyl side, *3 side chain or, on linkers, in order; H or OH if unused. Where a SMILES comes first, the peptide text is derived from it. Bridges are numbered along the chain shown (N, C = ends). [ ]: non-standard residue; d: D form. The star is where a group is joined. Ala(piperidin-4-yl) = O=C([C@H](CC1CCN([*:3])CC1)N[*:1])[*:2]; Malonyl(2,2-Me2,histaminyl) = CC(C)(C(=O)NCCc1cnc[nH]1)C(=O)*; dBip = N[C@H](Cc1ccc(-c2ccccc2)cc1)C(=O)O; Oic = O=C(O)[C@@H]1C[C@@H]2CCCC[C@@H]2N1; Phe(4-Br) = N[C@@H](Cc1ccc(Br)cc1)C(=O)O; hArg = N=C(N)NCCCC[C@H](N)C(=O)O; Pip = O=C(O)[C@@H]1CCCCN1; Nle = CCCC[C@H](N)C(=O)O

In assay [1] the target is T1, human Apelin receptor (Homo sapiens, UniProt P35414).
T1 sequence (P35414 1-380): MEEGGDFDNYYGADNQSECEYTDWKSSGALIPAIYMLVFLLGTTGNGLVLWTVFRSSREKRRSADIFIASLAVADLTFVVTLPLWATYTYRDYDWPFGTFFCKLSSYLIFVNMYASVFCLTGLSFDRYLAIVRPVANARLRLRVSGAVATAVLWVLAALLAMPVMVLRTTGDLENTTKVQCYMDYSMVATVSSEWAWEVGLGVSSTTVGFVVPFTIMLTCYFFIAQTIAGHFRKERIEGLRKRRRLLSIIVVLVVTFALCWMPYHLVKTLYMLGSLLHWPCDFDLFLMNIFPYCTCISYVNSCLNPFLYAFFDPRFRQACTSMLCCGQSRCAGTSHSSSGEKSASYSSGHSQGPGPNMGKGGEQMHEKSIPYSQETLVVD
The assay is described as follows: cAMP accumulation assay (HTRF), functional agonism, CHO cells stably expressing the human Apelin receptor. Format: cell-based. The following applies: for Emax: CHO. The text has this:
cAMP functional assay. cAMP production was quantified using the Homogeneous Time-Resolved Fluorescence (HTRF) cAMP dynamic-2 assay (Cisbio, France).
(In general: Cyclic AMP is a second messenger, typically raised through Gs and lowered through Gi signalling.)

Assay [2] addresses T1, human Apelin receptor. The assay is described as follows: β-arrestin accumulation assay, CHO-K1 cells overexpressing human Apelin receptor and β-arrestin (DiscoverRx). Format: cell-based. Also on record: host or cells: CHO-K1 cells. The procedure:
β-arrestin assay. […] After 16 h incubation at 37° C. media was removed and cells were incubated at 37° C. for 90 min in serum free media containing increasing concentrations of test agonist. The assay reaction was stopped by adding detection reagent (DiscoveRx) and incubation for 60 min in the dark. Levels of receptor activation were then measured on a PheraStar fluorescence plate reader (BMG LabTech) and EC50 values were determined using Graphpad Prism.

For `CC(C)C[C@H](NC(=O)[C@@H](CCCNC(=N)N)NC(=O)[C@@H]1CCCCN1C(=O)[C@H](CCCCNC(=N)N)NC(=O)[C@H](CCC(N)=O)NC(=O)[C@@H](CCCNC(=N)N)NC(=O)C(C)(C)C(=O)NCCc1c[nH]cn1)C(=O)N[C@H]1CCC(=O)NCCCC[C@@H](C(=O)N2[C@H](C(=O)N[C@@H](Cc3ccc(Br)cc3)C(=O)N3CCC[C@H]3C(=O)N[C@H](Cc3ccc(-c4ccccc4)cc3)C(=O)O)C[C@@H]3CCCC[C@@H]32)NC(=O)[C@H](CC2CCNCC2)NC(=O)[C@H](Cc2c[nH]cn2)NC1=O` [Example 1] ({Malonyl(2,2-Me2,histaminyl)}-[dR]Q[hArg][Pip][dR]LEH[Ala(piperidin-4-yl)]K[Oic][Phe(4-Br)]P[dBip]-OH; lactam 7-10), on human Apelin receptor [1], the EC50 was 3.16 nM and the Emax was determined as 70.5%. Also, the EC50 at human Apelin receptor [2] was more than 10000 nM.

At human Apelin receptor [1], `CCCC[C@H](NC(=O)[C@@H]1C[C@@H]2CCCC[C@@H]2N1C(=O)[C@@H]1CCCCNC(=O)CC[C@H](NC(=O)[C@H](CC(C)C)NC(=O)[C@@H](CCCNC(=N)N)NC(=O)[C@@H]2CCCCN2C(=O)[C@H](CCCCNC(=N)N)NC(=O)[C@H](CCC(N)=O)NC(=O)[C@@H](CCCNC(=N)N)NC(=O)C(C)(C)C(=O)NCCc2c[nH]cn2)C(=O)N[C@@H](Cc2c[nH]cn2)C(=O)N[C@@H](CC2CCNCC2)C(=O)N1)C(=O)N1CCC[C@H]1C(=O)N[C@H](Cc1ccc(-c2ccccc2)cc1)C(=O)O` [Example 2] ({Malonyl(2,2-Me2,histaminyl)}-[dR]Q[hArg][Pip][dR]LEH[Ala(piperidin-4-yl)]K[Oic][Nle]P[dBip]-OH; lactam 7-10) showed an EC50 of 15.8 nM and an Emax of 31.2%. The same molecule gave an EC50 at human Apelin receptor [2] of more than 10000 nM.

Take `CCCC[C@H](NC(=O)[C@@H]1C[C@@H]2CCCC[C@@H]2N1C(=O)[C@@H]1CCCCNC(=O)CC[C@H](NC(=O)[C@H](CC(C)C)NC(=O)[C@@H](CCCNC(=N)N)NC(=O)[C@@H]2CCCCN2C(=O)[C@H](CCCCNC(=N)N)NC(=O)[C@H](CCC(N)=O)NC(=O)[C@@H](CCCNC(=N)N)NC(=O)C(C)(C)C(=O)NCCc2c[nH]cn2)C(=O)N[C@@H](Cc2ccc(Br)cc2)C(=O)N[C@@H](CC2CCNCC2)C(=O)N1)C(=O)N1CCC[C@H]1C(=O)N[C@H](Cc1ccc(-c2ccccc2)cc1)C(=O)O` [Example 4] ({Malonyl(2,2-Me2,histaminyl)}-[dR]Q[hArg][Pip][dR]LE[Phe(4-Br)][Ala(piperidin-4-yl)]K[Oic][Nle]P[dBip]-OH; lactam 7-10): the maximal response (Emax) at human Apelin receptor [1] (read-out: Emax) came out at 28.4%. Also, the EC50 was 100 nM at human Apelin receptor [1] (read-out: pEC50 (converted)) and more than 10000 nM at human Apelin receptor [2] (read-out: pEC50 (converted)).

As to `CC(C)C[C@H](NC(=O)[C@@H](CCCNC(=N)N)NC(=O)[C@@H]1CCCCN1C(=O)[C@H](CCCCNC(=N)N)NC(=O)[C@H](CCC(N)=O)NC(=O)C(C)(C)C(=O)NCCc1c[nH]cn1)C(=O)N[C@H]1CCC(=O)NCCCC[C@@H](C(=O)N2[C@H](C(=O)N[C@@H](Cc3ccc(Br)cc3)C(=O)N3CCC[C@H]3C(=O)N[C@H](Cc3ccc(-c4ccccc4)cc3)C(=O)O)C[C@@H]3CCCC[C@@H]32)NC(=O)[C@H](CC2CCNCC2)NC(=O)[C@H](Cc2c[nH]cn2)NC1=O` [Example 5] ({Malonyl(2,2-Me2,histaminyl)}-Q[hArg][Pip][dR]LEH[Ala(piperidin-4-yl)]K[Oic][Phe(4-Br)]P[dBip]-OH; lactam 6-9), the maximum response (Emax) on human Apelin receptor [1] (read-out: Emax) is 48.2%. Moreover, the EC50 at human Apelin receptor [1] (read-out: pEC50 (converted)) is 5.01 nM; at human Apelin receptor [2] (read-out: pEC50 (converted)), more than 10000 nM.

With `CC(C)C[C@@H]1NC(=O)[C@@H](CCCNC(=N)N)NC(=O)[C@@H](NC(=O)[C@H](CCCCNC(=N)N)NC(=O)[C@H](CCC(N)=O)NC(=O)C(C)(C)C(=O)NCCc2c[nH]cn2)CC(=O)NCCCC[C@@H](C(=O)N[C@@H](CC2CCNCC2)C(=O)NCC(=O)N2[C@H](C(=O)N[C@@H](Cc3ccc(Br)cc3)C(=O)N3CCC[C@H]3C(=O)N[C@H](Cc3ccc(-c4ccccc4)cc3)C(=O)O)C[C@@H]3CCCC[C@@H]32)NC(=O)CNC1=O` [Example 6] ({Malonyl(2,2-Me2,histaminyl)}-Q[hArg]D[dR]LGK[Ala(piperidin-4-yl)]G[Oic][Phe(4-Br)]P[dBip]-OH; lactam 3-7), at human Apelin receptor [1], the EC50 is 12.6 nM and the Emax was determined as 30.5%. At human Apelin receptor [2], this molecule returned an EC50 of more than 100000 nM.

As usually defined, the Emax is the size of the effect at its maximum, as opposed to the concentration needed.

(Values after US20230382950A1 (priority 2020, published 2023).)
